Reference: patent publication US20220363727A1, “ANTIBACTERIAL PEPTIDE DERIVED FROM ERYTHROCULTER ILISHAEFORMIS AND USE THEREOF” (SOOCHOW UNIVERSITY, priority 2020, published 2022)
≈ marks a conversion by molar mass, not a printed value. Read-outs that look alike come from different tables or passages of the source. Bridge positions count the residues as written; N and C are the ends. Ends that are not written are not given here.

Assays:
Format in all cases: cell-based
[1] = tested on: Aeromonas hydrophila; experiment: microbe, parasite or virus in culture
Experimental: (§1) The antibacterial activity of LEAP-2 from Erythroculter ilishaeformis (having the amino acid sequence as shown in SEQ ID NO: 1) against fish pathogens was tested by a two-fold dilution method. […] Aeromonas sobria, Aeromonas hydrophila, Vibrio harveyi, Vibrio parahaemolyticus, Vibrio anguillarum, Vibrio vulnificus, Vibrio splendidus and Vibrio cholerae were cultured in a nutrient broth medium to the logarithmic phase, and then diluted with fresh nutrient broth medium to 10^5 CFU/mL. Then, 50 μL of diluted bacterial solution was added to each well of the 96-well plate containing the prepared two-fold dilution of LEAP-2 from Erythroculter ilishaeformis. After culturing at 37° C. for 18 hours, the minimal inhibitory concentration (MIC) was measured.

[2] = tested on: Aeromonas sobria; experiment: microbe, parasite or virus in culture
Experimental: as §1

[3] = tested on: Vibrio anguillarum; experiment: microbe, parasite or virus in culture
Experimental: as §1

[4] = tested on: Vibrio harveyi; experiment: microbe, parasite or virus in culture
Experimental: as §1

[5] = tested on: Vibrio parahaemolyticus; experiment: microbe, parasite or virus in culture
Experimental: as §1

[6] = tested on: Vibrio splendidus; experiment: microbe, parasite or virus in culture
Experimental: as §1

[7] = tested on: Vibrio vulnificus; experiment: microbe, parasite or virus in culture
Experimental: as §1

[8] = tested on: Vibrio cholerae; experiment: MIC by two-fold dilution method
Experimental: as §1

[9] = tested on: Aeromonas hydrophila (penicillin-resistant strain); experiment: Kinetic analysis of antibacterial action (CFU counts over time); conditions: for Number of bacteria co-cultured with sample: LEAP-2 5×MIC 93.75 μg/mL
Experimental: Aeromonas hydrophila (penicillin-resistant strain) was cultured to the logarithmic phase and diluted with fresh nutrient broth medium to 10^5 CFU/mL. […] At each time point, 50 μL of bacterial solution was taken and diluted 1000 times with nutrient broth medium. Then 50 μL of the dilution was spread on a nutrient broth agarose plate. After culturing at 37° C. for 12 hours, the CFU was calculated.

[10] = tested on: V. harveyi; experiment: Checkerboard test for synergy of LEAP-2 and ampicillin; conditions: Vibrio harveyi; for MIC used in combination: ampicillin and LEAP-2 used in combination
Experimental: (§2) 50 μL was added to each well, and uniformly mixed. […] 100 μL of bacterial solution was added to each well.

[11] = tested on: V. parahaemolyticus; experiment: as above; conditions: Vibrio parahaemolyticus; for MIC used in combination: ampicillin and LEAP-2 used in combination
Experimental: as §2

CC1(C)S[C@@H]2[C@H](NC(=O)[C@H](N)c3ccccc3)C(=O)N2[C@H]1C(=O)O [Ampicillin] gave an MIC ([1]; Aeromonas hydrophila, 37° C., 18 hours, average of three experiments) greater than 200 µg/mL, an MIC ([1]; Aeromonas hydrophila, 37° C., 18 hours, average of three experiments, read-out: MIC) greater than 200 µg/mL and an MIC ([2]; Aeromonas sobria, 37° C., 18 hours, average of three experiments) greater than 200 µg/mL. The MIC ([2]; Aeromonas sobria, 37° C., 18 hours, average of three experiments, read-out: MIC) was greater than 200 µg/mL, the MIC ([3]; Vibrio anguillarum, 37° C., 18 hours, average of three experiments) was greater than 200 µg/mL and the MIC ([3]; Vibrio anguillarum, 37° C., 18 hours, average of three experiments, read-out: MIC) was greater than 200 µg/mL. The MIC ([4]; Vibrio harveyi, 37° C., 18 hours, average of three experiments, read-out: MIC) was 37.5 µg/mL (≈ 107 µM), the MIC ([5]; Vibrio parahaemolyticus, 37° C., 18 hours, average of three experiments, read-out: MIC) was 18.8 µg/mL (≈ 53.7 µM) and the MIC ([6]; Vibrio splendidus, 37° C., 18 hours, average of three experiments) was greater than 200 µg/mL. For the same molecule, the MIC ([6]; Vibrio splendidus, 37° C., 18 hours, average of three experiments, read-out: MIC) was greater than 200 µg/mL, the MIC ([7]; Vibrio vulnificus, 37° C., 18 hours, average of three experiments) was greater than 200 µg/mL and the MIC ([7]; Vibrio vulnificus, 37° C., 18 hours, average of three experiments, read-out: MIC) was greater than 200 µg/mL. The MIC ([8]; 37° C., 18 hours, average of three experiments) was greater than 200 µg/mL, the MIC ([8]; 18 h) was greater than 200 µg/mL and the “Number of bacteria co-cultured with sample” value (from here on “Number”) ([9]; 0 min, ampicillin 1 mg/mL) was 67 ± 7.5 ×10^3, CFUs/mL. For the same molecule, the “Number” value ([9]; 10 min, ampicillin 1 mg/mL) was 69 ± 8.1 ×10^3, CFUs/mL, the “Number” value ([9]; 20 min, ampicillin 1 mg/mL) was 70 ± 7.2 ×10^3, CFUs/mL and the “Number” value ([9]; 30 min, ampicillin 1 mg/mL) was 72 ± 6.9 ×10^3, CFUs/mL. The “Number” value ([9]; 45 min, ampicillin 1 mg/mL) was 85 ± 6.9 ×10^3, CFUs/mL, the “Number” value ([9]; 90 min, ampicillin 1 mg/mL) was 197 ± 12.6 ×10^3, CFUs/mL and the “Number” value ([9]; 120 min, ampicillin 1 mg/mL) was 378 ± 41.5 ×10^3, CFUs/mL. The “Number” value ([9]; 180 min, ampicillin 1 mg/mL) was 961 ± 87.3 ×10^3, CFUs/mL, the “CFU of Aeromonas hydrophila after 180 minutes of incubation” value ([9]; ampicillin 1 mg/mL, 2862.0 μM, 180 minutes) was 9.6×10^5 CFUs/mL and the “CFU of Aeromonas hydrophila at start” value ([9]; ampicillin 1 mg/mL, 2862.0 μM, before incubation) was 6.7×10^4 CFUs/mL. For the same molecule, the MIC ([10]; read-out: MIC used alone) was 37.5 µg/mL, the “MIC used in combination” value [10] was 4.69 µg/mL and the MIC ([11]; read-out: MIC used alone) was 18.8 µg/mL. The FIC ([11]; MIC in combination/MIC alone) was 0.25 and the “MIC used in combination” value [11] was 4.69 µg/mL.

In the case of “MTPLWRIMLLFKPHALCQNNYACSTGLCRYGHCSALQTILS (disulfide 17-28, 23-33) [LEAP-2]”, the MIC ([1]; 18 h) is reported as 18.75 µg/mL, the “MIC (molar, in brackets)” value ([1]; Aeromonas hydrophila, converted from μg/mL) is reported as “(4.0 μM)” and the MIC ([2]; 18 h) is reported as 75 µg/mL. For the same molecule, the “MIC (molar, in brackets)” value ([2]; Aeromonas sobria, converted from μg/mL) was “(16.1 μM)”, the MIC ([3]; 18 h) was 150 µg/mL and the “MIC (molar, in brackets)” value ([3]; Vibrio anguillarum, converted from μg/mL) was “(32.2 μM)”. For the same molecule, the MIC ([4]; 18 h) was 75 µg/mL, the “MIC (molar, in brackets)” value ([4]; Vibrio harveyi, converted from μg/mL) was “(16.1 μM)” and the MIC ([5]; 18 h) was 75 µg/mL. For the same molecule, the “MIC (molar, in brackets)” value ([5]; Vibrio parahaemolyticus, converted from μg/mL) was “(16.1 μM)”, the MIC ([6]; 18 h) was 150 µg/mL and the “MIC (molar, in brackets)” value ([6]; Vibrio splendidus, converted from μg/mL) was “(32.2 μM)”. The MIC ([7]; 18 h) was 37.5 µg/mL, the “MIC (molar, in brackets)” value ([7]; Vibrio vulnificus, converted from μg/mL) was “(8.1 μM)” and the “MIC (molar, in brackets)” value ([8]; converted from μg/mL) was “(8.1 μM)”. For the same molecule, the “Number” value ([9]; 0 min, ampicillin 1 mg/mL) was 65 ± 5.3 ×10^3, CFUs/mL, the “time to kill all bacteria” value ([9]; 5×MIC, i.e., 20.2 μM) was no more than 60 min and the “Number” value ([9]; 10 min, ampicillin 1 mg/mL) was 59 ± 7.4 ×10^3, CFUs/mL. The “Number” value ([9]; 20 min, ampicillin 1 mg/mL) was 40 ± 8.4 ×10^3, CFUs/mL, the “Number” value ([9]; 30 min, ampicillin 1 mg/mL) was 28 ± 5.9 ×10^3, CFUs/mL and the “Number” value ([9]; 45 min, ampicillin 1 mg/mL) was 11 ± 3.5 ×10^3, CFUs/mL. The “Number” value ([9]; 60 min, ampicillin 1 mg/mL) was 0 ×10^3, CFUs/mL, the “Number” value ([9]; 90 min, ampicillin 1 mg/mL) was 0 ×10^3, CFUs/mL and the “Number” value ([9]; 120 min, ampicillin 1 mg/mL) was 0 ×10^3, CFUs/mL. For the same molecule, the “Number” value ([9]; 180 min, ampicillin 1 mg/mL) was 0 ×10^3, CFUs/mL, the “MIC used in combination” value [10] was 18.75 µg/mL and the “MIC used in combination” value [11] was 18.75 µg/mL.
